The target of one experiment is FGFR4 (Homo sapiens, UniProt P22455). As to the kind of experiment: FGFR4 Caliper Assay (in vitro biochemical kinase analysis of FGFR4). As to conditions: read-out: Enzymatic activity FGFR4 IC50. In outline: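 Kinase reaction at 30° C for 40 min in 50 mM HEPES pH 7.5, 16 mM MgCl2, 1 mM DTT, 0.6% DMSO, stopped with EDTA. Phosphorylated and unphosphorylated fluorescent peptides separated by Caliper microfluidic mobility shift. IC50 by non-linear regression of percent inhibition.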
Chain of FGFR4 (P22455 22-802): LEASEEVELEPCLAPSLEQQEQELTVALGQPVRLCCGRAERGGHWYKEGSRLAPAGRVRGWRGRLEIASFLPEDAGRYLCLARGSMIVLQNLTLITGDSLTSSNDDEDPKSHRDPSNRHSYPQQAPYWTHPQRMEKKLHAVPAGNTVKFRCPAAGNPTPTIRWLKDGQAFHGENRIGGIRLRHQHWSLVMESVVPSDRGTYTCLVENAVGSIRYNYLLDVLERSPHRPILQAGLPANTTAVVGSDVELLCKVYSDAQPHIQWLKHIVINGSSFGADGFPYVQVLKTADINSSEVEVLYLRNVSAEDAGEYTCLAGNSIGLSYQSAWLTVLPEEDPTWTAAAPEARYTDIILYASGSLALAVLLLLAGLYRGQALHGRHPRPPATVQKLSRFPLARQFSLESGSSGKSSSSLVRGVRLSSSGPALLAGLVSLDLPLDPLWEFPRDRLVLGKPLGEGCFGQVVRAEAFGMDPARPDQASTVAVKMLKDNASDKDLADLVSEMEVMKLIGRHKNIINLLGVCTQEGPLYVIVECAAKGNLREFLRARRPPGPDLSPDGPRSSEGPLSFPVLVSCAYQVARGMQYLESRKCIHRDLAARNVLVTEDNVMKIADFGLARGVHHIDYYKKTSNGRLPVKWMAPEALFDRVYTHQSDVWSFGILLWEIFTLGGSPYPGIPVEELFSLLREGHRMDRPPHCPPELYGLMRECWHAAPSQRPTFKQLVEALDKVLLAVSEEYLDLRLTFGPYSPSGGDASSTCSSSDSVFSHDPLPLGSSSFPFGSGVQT

Experiment [1] relates to Huh7 hepatocellular carcinoma cells. As to the kind of experiment: FGFR4 cell proliferation experiment, Cell Titer Glo (CTG). It is filed as cell-based. The following applies: Homo sapiens, Huh-7, 72 h, HuH-7 cells, 3 days; for pIC50: concentration leading to absolute half growth inhibition; for pEC50: concentration leading to half maximal growth inhibition. In outline: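 Cells treated with 5-fold serial dilutions starting at 10 μM for 3 days at 37° C, 5% CO2. Proliferation/survival quantified as cellular ATP by CellTiter-Glo luminescence.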

pEC50, pIC50: −log10 of the molar value.

With `C=CC(=O)N[C@H]1COC[C@H]1Nc1ncc2cc(-c3c(F)c(OC)cc(OC)c3F)nc(N3CC(OC)C3)c2n1` [Example 659, N-((3R,4S)-4-((6-(2,6-difluoro-3,5-dimethoxyphenyl)-8-(3-methoxyazeti-din-1-yl)pyrido[3,4-d]pyrimidin-2-yl)a-mino)tetrahydrofuran-3-yl)acryl-amide], the values for the pIC50 (at FGFR4; in experiment [1]) were 8.18 and 7.61, respectively. This compound also showed a pEC50 in experiment [1] of 7.74.

Turning to `C=CC(=O)N[C@H]1COC[C@H]1Nc1ncc2cc(-c3c(Cl)c(OC)cc(OC)c3Cl)nc(N3CC(F)(F)C3)c2n1` [Example 663, N-((3R,4S)-4-((6-(2,6-dichloro-3,5-dimethoxyphenyl)-8-(3,3-difluoroaze-tidin-1-yl)pyrido[3,4-d]pyrimidin-2-yl)amino)tetrahydrofuran-3-yl)acryl-amide], on FGFR4, the pIC50 was 8.35. In experiment [1], this compound had a pIC50 of 8.46 and a negative-log EC50 (pEC50) of 8.64.

For `C=CC(=O)N[C@H]1COC[C@H]1Nc1ncc2cc(-c3c(Cl)c(OC)cc(OC)c3Cl)nc(N3CC(C)(O)C3)c2n1` [Example 664, N-((3R,4S)-4-((6-(2,6-dichloro-3,5-dimethoxyphenyl)-8-(3-hydroxy-3-meth-ylazetidin-1-yl)pyrido[3,4-d]pyrimi-din-2-yl)amino)tetrahydrofuran-3-yl)acrylamide], the pIC50 at FGFR4 was 8.31. For the same compound, in experiment [1], the pIC50 is 8.31 and the pEC50 was 8.43.

With `C=CC(=O)N[C@H]1COC[C@H]1Nc1ncc2cc(-c3c(Cl)c(OC)cc(OC)c3Cl)nc(N3CC(C)(OC)C3)c2n1` [Example 665, N-((3R,4S)-4-((6-(2,6-dichloro-3,5-di-methoxyphenyl)-8-(3-methoxy-3-methylazetidin-1-yl)pyrido[3,4-d]py-rimidin-2-yl)amino)tetrahydrofuran-3-yl)acrylamide], the pIC50 at FGFR4 was 8.24. In experiment [1], this compound showed a pIC50 of 7.93 and a pEC50 of 8.00.

Regarding `C=CC(=O)N[C@H]1COC[C@H]1Nc1ncc2cc(-c3c(F)c(OC)cc(OC)c3F)nc(N3CC(C)(OC)C3)c2n1` [Example 666, N-((3R,4S)-4-((6-(2,6-difluoro-3,5-dimethoxyphenyl)-8-(3-methoxy-3-methylazetidin-1-yl)pyrido[3,4-d]pyri-midin-2-yl)amino)tetrahydrofuran-3-yl)acrylamide], the pIC50 on FGFR4 was 8.35; in experiment [1], 8.34. This compound also gave a pEC50 in experiment [1] of 8.49.

On to `C=CC(=O)N[C@H]1COC[C@H]1Nc1ncc2cc(-c3c(Cl)c(OC)cc(OC)c3Cl)nc(N3CC4(COC4)C3)c2n1` [Example 668, N-((3R,4S)-4-((6-(2,6-dichloro-3,5-dimethoxyphenyl)-8-(2-oxa-6-aza-spiro[3.3]heptan-6-yl)pyrido[3,4-d]py-rimidin-2-yl)amino)tetrahydrofuran-3-yl)acrylamide], for which the pIC50 on FGFR4 is 7.83. In addition, in experiment [1], the pIC50 is 7.65 and the pEC50 is 7.80.

In the case of `C=CC(=O)N[C@H]1COC[C@H]1Nc1ncc2cc(-c3c(Cl)c(OC)cc(OC)c3Cl)nc(N3CC4(CCOCC4)C3)c2n1` [Example 675, N-((3R,4S)-4-((6-(2,6-dichloro-3,5-dimethoxyphenyl)-8-(7-oxa-2-azaspiro[3.5]nonan-2-yl)pyrido[3,4-d]pyrimidin-2-yl)amino)tetrahydrofuran-3-yl)acrylamide], the pIC50 on FGFR4 was 7.96. For the same compound, in experiment [1], the pIC50 was 8.06 and the pEC50 was 8.21.

As for `C=CC(=O)N[C@H]1COC[C@H]1Nc1ncc2cc(-c3c(Cl)c(OC)cc(OC)c3Cl)nc(N3CCC(OC)C3)c2n1` (stereo partly drawn) [Example 677, N-((3R,4S)-4-((6-(2,6-dichloro-3,5-dimethoxyphenyl)-8-(3-methoxypyrro-lidin-1-yl)pyrido[3,4-d]pyrimidin-2-yl)amino)tetrahydrofuran-3-yl)acryl-amide], at FGFR4, the pIC50 is 8.13. In experiment [1], this compound showed a pIC50 of 8.28 and a negative-log EC50 (pEC50) of 8.43.

As to `C=CC(=O)N[C@H]1COC[C@H]1Nc1ncc2cc(-c3c(F)c(OC)cc(OC)c3F)nc(N3CCC(OC)C3)c2n1` (stereo partly drawn) [Example 678, N-((3R,4S)-4-((6-(2,6-difluoro-3,5-di-methoxyphenyl)-8-(3-methoxypyrro-lidin-1-yl)pyrido[3,4-d]pyrimidin-2-yl)amino)tetrahydrofuran-3-yl)acryl-amide], the negative-log IC50 (pIC50) on FGFR4 was 8.19. In experiment [1], the negative-log IC50 (pIC50) was 7.78 and the pEC50 was 7.88.

Consider `C=CC(=O)N[C@H]1COC[C@H]1Nc1ncc2cc(-c3c(Cl)c(OC)cc(OC)c3Cl)nc(N3CCOCC3)c2n1` [Example 686, N-((3R,4S)-4-((6-(2,6-dichloro-3,5-dimethoxyphenyl)-8-morpholino-pyrido[3,4-d]pyrimidin-2-yl)amino)tetra-hydrofuran-3-yl)acrylamide], for which the negative logarithm of the IC50 (pIC50) at FGFR4 is 8.09; in experiment [1], 8.06. Moreover, the negative logarithm of the EC50 (pEC50) in experiment [1] was 8.27.

For `C=CC(=O)N[C@H]1COC[C@H]1Nc1ncc2cc(-c3c(F)c(OC)cc(OC)c3F)nc(N3CCOCC3)c2n1` [Example 687, N-((3R,4S)-4-((6-(2,6-difluoro-3,5-dimethoxyphenyl)-8-morpholino-pyrido[3,4-d]pyrimidin-2-yl)a-mino)tetrahydrofuran-3-yl)acrylamide], the negative-log IC50 (pIC50) on FGFR4 was 8.20. In addition, in experiment [1], the negative logarithm of the IC50 (pIC50) is 8.00 and the pEC50 is 8.16.

Regarding `C=CC(=O)N[C@H]1COC[C@H]1Nc1ncc2cc(-c3c(Cl)c(OC)cc(OC)c3Cl)nc(N3CC(C)OC(C)C3)c2n1` (stereo partly drawn) [Example 690, N-((3R,4S)-4-((6-(2,6-dichloro-3,5-dimethoxyphenyl)-8-(2,6-dimethyl-morpholino)pyrido[3,4-d]pyrimidin-2-yl)amino)tetrahydrofuran-3-yl)acryl-amide], the results for the negative-log IC50 (pIC50) (on FGFR4; in experiment [1]) were 8.10 and 7.92, respectively. This compound showed a pEC50 in experiment [1] of 8.08.

On to `C=CC(=O)N[C@H]1COC[C@H]1Nc1ncc2cc(-c3c(Cl)c(OC)cc(OC)c3Cl)nc(N3CCC(OC)CC3)c2n1` [Example 693, N-((3R,4S)-4-((6-(2,6-dichloro-3,5-dimethoxyphenyl)-8-(4-methoxy-piperidin-1-l)pyrido[3,4-d]pyrimidin-2-yl)amino)tetrahydrofuran-3-yl)acryl-amide], for which, at FGFR4, the pIC50 is 8.25. In experiment [1], this compound showed a pIC50 of 8.68 and a pEC50 of 8.89.

For `C=CC(=O)N[C@H]1COC[C@H]1Nc1ncc2cc(-c3c(F)c(OC)cc(OC)c3F)nc(N3CCC(OC)CC3)c2n1` [Example 694, N-((3R,4S)-4-((6-(2,6-difluoro-3,5-dimethoxyphenyl)-8-(4-methoxypiper-idin-1-yl)pyrido[3,4-d]pyrimidin-2-yl)amino)tetrahydrofuran-3-yl)acryl-amide], the pIC50 is 8.32 on FGFR4 and 7.92 in experiment [1]. Also, the negative logarithm of the EC50 (pEC50) in experiment [1] is 8.00.

For `C=CC(=O)N[C@H]1CCOC[C@H]1Nc1ncc2cc(-c3c(Cl)c(OC)cc(OC)c3Cl)nc(N3CC(OC)C3)c2n1` [Example 704, N-((3S,4S)-3-((6-(2,6-dichloro-3,5-di-methoxyphenyl)-8-(3-methoxyazeti-din-1-yl)pyrido[3,4-d]pyrimidin-2-yl)amino)tetrahydro-2H-pyran-4-yl)acrylamide], the negative-log IC50 (pIC50) on FGFR4 is 8.07. Also, in experiment [1], the negative logarithm of the IC50 (pIC50) is 7.69 and the negative-log EC50 (pEC50) was 7.76.

For the origin of these results see patent publication US11555036B2, “FGFR4 inhibitor, preparation method therefor and pharmaceutical use thereof” (Abbisko Therapeutics Co., Ltd., priority 2016, dated 2023).
